According to patent publication US20250304985A1, “Genetically Engineered Plants for Increased Production of Vindoline” (Northeastern University, priority 2022, published 2025):

Key:
Assay type in all cases: in vivo, Catharanthus roseus
C. roseus seedlings = test: Paclobutrazol treatment of etiolated seedlings: seedling height; details: 1 μM PAC, dark-grown seedlings, 4 days, vs DMSO mock
Procedure: (§1) Because PAC might disrupt germination, seedlings were first germinated normally without any treatment by incubating them in the dark for 5 days at 27° C. The germinated seeds were then transferred to either media containing 1 μM PAC or media containing an equal volume of DMSO as a mock treatment. These seedlings were kept in the dark for 4 more days before being harvested for gene expression analysis.
Seedlings treated with PAC were photographed and lengths were measured with ImageJ. Statistical significance for all phenotype measurements was analyzed with a two-tailed unpaired T-test.
C. roseus var. Little Bright Eye seeds (NESeeds, 0.8 g) were sterilized by submersion in 4% Plant Preservative Mixture (PPM) for 18 hours in the dark. The PPM was then decanted, and the seeds were spread on full-strength Gamborg's media (3.1 g/L Gamborg's basal salts, 1× Gamborg's vitamins, and 6% micropropagation agar type 1, Phytotechnology Laboratory) inside a sterile Magenta™ Plant Culture Box (Sigma) for germination. […] Seedlings were maintained in the dark at 27° C. for 4 days, and then were harvested by placing 3 whole seedlings in a 2 mL screw cap tube containing ten 3 mm glass beads for each biological replicate, flash-freezing in liquid nitrogen, and storing at −80° C. until ready for RNA extraction and qPCR analysis.

[1] = system: vindoline pathway gene expression; test: Paclobutrazol treatment of etiolated seedlings: vindoline pathway gene expression by qPCR; details: 1 μM PAC, dark-grown seedlings, 4 days, vs DMSO mock
Procedure: as §1
Gene expression levels were monitored using quantitative real-time PCR (qRT-PCR) with primers listed in Table 1. mRNA was extracted from liquid nitrogen flash-frozen leaf tissue or seedlings stored at −80° C. While still frozen, tissue was crushed by shaking in a Mini-BeadBeater-16 (Biospec) for 15 seconds with ten 3 mm glass beads (Fisher). Afterwards, RNA was extracted with RNAzol-RT (Molecular Research Center) and the Direct-zol RNA Miniprep Plus Kit (Zymo Research) with on-column DNAse treatment to remove genomic DNA. RNA integrity was assessed using agarose gel electrophoresis, and concentration and purity were quantified with a NanoDrop (ND-1000 Spectrophotometer; ThermoScientific). cDNA was synthesized using either the SuperScript II First-Strand Synthesis System (Invitrogen) or the LunaScript RT SuperMix Kit (New England Biolabs) with up to 2.5 μg of RNA, according to manufacturer's instructions. cDNA was diluted 1:4, and 1 μL was used in a 10 μL reaction with SYBR Green ROX qPCR Master Mix (Qiagen or ABClonal) and 300 nM primers on the MX3000P qPCR instrument (Agilent) using the thermocycler protocol previously described with an extension time of 30 seconds. Ct values for each biological replicate were calculated as the average of two technical replicates. Transcript levels were normalized to the housekeeping gene, SAND [76], and fold changes relative to the negative control condition were calculated according to the […]. Amplification efficiency for each primer set was confirmed using Ct values over a range of cDNA dilutions and was 100%±10% for each gene monitored. Specificity of the primers were confirmed by gel electrophoresis and sequencing. SAND Ct values in no reverse-transcriptase controls were confirmed to be at least 5 Ct values above the respective experimental sample, indicating minimal genomic DNA contamination.
C. roseus var. Little Bright Eye seeds (NESeeds, 0.8 g) were sterilized by submersion in 4% Plant Preservative Mixture (PPM) for 18 hours in the dark. The PPM was then decanted, and the seeds were spread on full-strength Gamborg's media (3.1 g/L Gamborg's basal salts, 1× Gamborg's vitamins, and 6% micropropagation agar type 1, Phytotechnology Laboratory) inside a sterile Magenta™ Plant Culture Box (Sigma) for germination. Seeds were germinated in the dark at 27° C. for 5 days until the radicle of the seedling had just emerged. A 100 mM stock solution of paclobutrazol (PAC, PhytoTechnology Laboratories) was prepared with DMSO as the solvent, filter-sterilized, and stored at −20° C. until use. A final concentration of 1 μM PAC or an equivalent amount of DMSO (mock) was added to Gamborg's media after autoclaving. After germination, seedlings were sterilely transferred to a new Magenta™ Box containing Gamborg's media containing 1 μM PAC or DMSO. Seedlings were maintained in the dark at 27° C. for 4 days, and then were harvested by placing 3 whole seedlings in a 2 mL screw cap tube containing ten 3 mm glass beads for each biological replicate, flash-freezing in liquid nitrogen, and storing at −80° C. until ready for RNA extraction and qPCR analysis.

CrLHCB2.2 = test: Paclobutrazol treatment of etiolated seedlings: CrLHCB2.2 expression by qPCR (positive control); details: 1 μM PAC, dark-grown seedlings, 4 days, vs DMSO mock; normalized to SAND
Procedure: as §1
This is consistent with GA's positive role in growth and served as a good indicator that the PAC was having an effect on the seedlings. As a positive control, expression of CrLHCB2.2 was measured; CrLHCB2.2 is a homologue of the light harvesting complex subunit B 2.2, which was previously shown to be activated by PAC treatment of dark-grown seedlings in A. thaliana.
Gene expression levels were monitored using quantitative real-time PCR (qRT-PCR) with primers listed in Table 1. mRNA was extracted from liquid nitrogen flash-frozen leaf tissue or seedlings stored at −80° C. […] Ct values for each biological replicate were calculated as the average of two technical replicates. Transcript levels were normalized to the housekeeping gene, SAND [76], and fold changes relative to the negative control condition were calculated according to the […]. Amplification efficiency for each primer set was confirmed using Ct values over a range of cDNA dilutions and was 100%±10% for each gene monitored. […]

[2] = system: CrDELLA1 and CrDELLA2 transcript levels; test: Paclobutrazol treatment of etiolated seedlings: DELLA transcript levels by qPCR; details: 1 μM PAC, dark-grown seedlings, 4 days, vs DMSO mock
Procedure: as §1
Gene expression levels were monitored using quantitative real-time PCR (qRT-PCR) with primers listed in Table 1. mRNA was extracted from liquid nitrogen flash-frozen leaf tissue or seedlings stored at −80° C. […] RNA integrity was assessed using agarose gel electrophoresis, and concentration and purity were quantified with a NanoDrop (ND-1000 Spectrophotometer; ThermoScientific). cDNA was synthesized using either the SuperScript II First-Strand Synthesis System (Invitrogen) or the LunaScript RT SuperMix Kit (New England Biolabs) with up to 2.5 μg of RNA, according to manufacturer's instructions. cDNA was diluted 1:4, and 1 μL was used in a 10 μL reaction with SYBR Green ROX qPCR Master Mix (Qiagen or ABClonal) and 300 nM primers on the MX3000P qPCR instrument (Agilent) using the thermocycler protocol previously described with an extension time of 30 seconds. Ct values for each biological replicate were calculated as the average of two technical replicates. […]

CC(C)(C)[C@@H](O)[C@@H](Cc1ccc(Cl)cc1)n1cncn1 (racemic) [PAC, paclobutrazol]
seedling height (C. roseus seedlings): significant decrease | D4H gene expression [1]: significant decrease | T16H2 gene expression [1]: no effect | activation of DAT gene expression ([1]; not statistically significant): approximately 50% | activation of NMT gene expression ([1]; not statistically significant): approximately 50% | activation of T3O gene expression ([1]; not statistically significant): approximately 50% | activation of T3R gene expression ([1]; not statistically significant): approximately 50% | activation of 16OMT gene expression ([1]; statistically significant): approximately 50% | activation of CrLHCB2.2 expression (CrLHCB2.2): > 2 fold | CrDELLA1 expression [2]: significantly decreased expression | CrDELLA2 expression [2]: significantly decreased expression
